Measurements from the NIST ThermoML archive (doi:10.1021/je900478c).

Experiment: xn = mol fraction of the nth substance listed
Conditions: 101 kPa, Liquid; for viscosity: Capillary tube (Ostwald / Ubbelohde) method

CCCCCCOCCOCCO [2-(2-hexyloxyethoxy)ethanol] + O
mass density [kg/m3]
Conditions	283.15 K	288.15 K	293.15 K	303.15 K	313.15 K
x1 = 0.0005	999.68	999.08	998.19	995.64	992.26
x1 = 0.00075	999.67	999.06	998.17	995.59	992.23
x1 = 0.001	999.66	999.07	998.17	995.58	992.18
x1 = 0.00118	999.7	999.09	998.17	995.57	992.11
x1 = 0.00135	999.76	999.14	998.2	995.58	992.03
x1 = 0.0015	999.84	999.17	998.16	995.51	991.94
x1 = 0.00164	999.86	999.18	998.09	–	–
x1 = 0.00196	999.87	999.15	–	–	–
x1 = 0.00225	999.88	999.08	–	–	–
x1 = 0.01501	995.9	–	–	–	–
x1 = 0.01996	994.71	–	–	–	–
x1 = 0.02493	993.53	–	–	–	–
x1 = 0.03004	992.45	–	–	–	–
x1 = 0.03536	991.13	–	–	–	–
x1 = 0.03996	990.1	–	–	–	–
x1 = 0.04496	989.11	–	–	–	–
x1 = 0.0501	988.12	985.54	–	–	–
x1 = 0.05911	986.43	983.76	–	–	–
x1 = 0.06985	984.69	982.01	979.28	–	–
x1 = 0.07977	983.2	980.24	977.23	–	–
x1 = 0.08835	982.02	978.92	975.77	–	–
x1 = 0.09988	980.51	977.4	973.98	–	–
x1 = 0.1332	976.63	973.14	969.58	962.38	–
x1 = 0.2029	970.18	966.49	962.68	955.04	947.26
x1 = 0.2856	964.36	960.42	956.52	948.66	940.71
x1 = 0.3597	960.18	956.18	952.21	944.22	936.21
x1 = 0.4529	955.83	951.8	947.82	939.82	931.76
x1 = 0.5426	952.4	948.39	944.4	936.42	928.33
x1 = 0.6772	948.33	944.25	940.24	932.25	924.21
x1 = 0.827	945.13	941.05	937.03	929.05	921.02
x1 = 1	942.09	938.05	934.06	926.08	918.17

CCCCOCCO [2-butoxyethan-1-ol] + O
Conditions	mass density, 283.15 K [kg/m3]	mass density, 293.15 K [kg/m3]	mass density, 303.15 K [kg/m3]	mass density, 313.15 K [kg/m3]	mass density, 323.15 K [kg/m3]	viscosity, 283.15 K [mPa·s]	viscosity, 293.15 K [mPa·s]	viscosity, 303.15 K [mPa·s]	viscosity, 313.15 K [mPa·s]	viscosity, 323.15 K [mPa·s]
x1 = 0.0005	999.62	998.13	995.57	992.12	–	–	–	–	–	–
x1 = 0.001	999.53	998.01	995.46	992.02	–	–	–	–	–	–
x1 = 0.00201	999.43	997.89	995.29	991.8	–	–	–	–	–	–
x1 = 0.003	999.37	997.78	995.12	991.58	–	–	–	–	–	–
x1 = 0.00399	999.24	997.6	994.89	991.31	–	–	–	–	–	–
x1 = 0.005	999.06	997.34	994.59	990.98	–	–	–	–	–	–
x1 = 0.00601	998.89	997.11	994.27	990.64	–	–	–	–	–	–
x1 = 0.00699	998.86	996.97	994.06	990.36	–	–	–	–	–	–
x1 = 0.00801	998.8	996.83	993.86	990.11	–	–	–	–	–	–
x1 = 0.00896	998.72	996.7	993.69	989.86	–	–	–	–	–	–
x1 = 0.00998	998.68	996.57	993.5	989.6	–	–	–	–	–	–
x1 = 0.01102	998.64	996.43	993.3	989.31	–	–	–	–	–	–
x1 = 0.01209	998.59	996.3	993.09	988.99	–	–	–	–	–	–
x1 = 0.01317	998.55	996.16	992.85	988.65	–	–	–	–	–	–
x1 = 0.01401	998.49	996.02	992.63	988.37	–	–	–	–	–	–
x1 = 0.01499	998.49	995.91	992.38	988.01	–	–	–	–	–	–
x1 = 0.01959	998.45	994.9	990.79	985.95	–	–	–	–	–	–
x1 = 0.02529	997	992.94	988.38	983.21	–	–	–	–	–	–
x1 = 0.0307	995.31	990.88	986.03	980.66	–	–	–	–	–	–
x1 = 0.03495	993.94	989.28	984.22	978.71	–	–	–	–	–	–
x1 = 0.04047	992.16	987.22	981.99	976.24	–	–	–	–	–	–
x1 = 0.04524	990.59	985.5	980.12	974.25	–	–	–	–	–	–
x1 = 0.04961	989.23	983.99	978.47	972.5	–	–	–	–	–	–
x1 = 0.05991	986.08	980.54	974.75	968.52	–	–	–	–	–	–
x1 = 0.06979	983.28	977.49	971.48	965.02	–	–	–	–	–	–
x1 = 0.07979	980.63	974.61	968.38	961.77	–	–	–	–	–	–
x1 = 0.08979	978.05	971.87	965.46	958.67	–	–	–	–	–	–
x1 = 0.1003	975.52	969.12	962.59	955.66	–	5.489	3.791	2.772	2.126	–
x1 = 0.2	957.51	950.15	942.62	934.8	926.83	7.107	4.854	3.483	2.584	1.979
x1 = 0.3	945.28	937.5	929.57	921.47	913.23	7.415	5.079	3.64	2.698	2.054
x1 = 0.4	935.77	927.76	919.6	911.3	902.87	7.234	4.994	3.594	2.672	2.038
x1 = 0.5	928.69	920.54	912.16	903.78	895.22	6.83	4.761	3.448	2.583	1.981
x1 = 0.6	923.16	914.96	906.6	898.14	889.56	6.352	4.476	3.272	2.465	1.901
x1 = 0.7	918.7	910.49	902.02	893.57	884.96	5.857	4.172	3.079	2.337	1.813
x1 = 0.7999	915.01	906.78	898.3	889.84	881.26	5.36	3.865	2.879	2.205	1.721
x1 = 0.9	912.08	903.8	895.3	886.83	878.23	4.885	3.56	2.679	2.068	1.629
x1 = 1	909.49	901.18	892.68	884.21	875.6	4.46	3.288	2.499	1.946	1.543
